Test system: MV4-11 cells
Assay: In vitro proliferation (Cell Titer Glo, 6 days) of Compound 51 in combination with gilteritinib, midostaurin or decitabine, MV4-11
Format: cell-based
Parameters: key to Synergy/antagonism call (maxR test), MV4-11 Cell Proliferation: synergy is indicated by “**”; antagonism is indicated by “*”; no asterisk: absence of any asterisk indicates an additive effect
Details: for combination effect on proliferation (cytotoxicity): 6-day CellTiter-Glo matrix
Procedure: 3) In Vitro Proliferation—Menin-MLL Inhibitor in Combination with FLT3 Inhibitor (Gilteritinib or Midostaurin), DNA Intercalating Agent (Idarubicin) or Hypomethylating Agent (Decitabine)
The effect of Compound 51 in combination with gilteritinib, midostaurin, idarubicin or decitabine was determined in proliferation assays.
AML cell lines MOLM-13, OCI-AML3 and MV4-11 were purchased from DSMZ. MOLM-13 were grown in RPMI medium supplemented with 10% Fetal Bovine Serum (FBS) and 1% penicillin/streptomycin. MV4-11 cells were grown in IMDM medium supplemented with 10% FBS and 1% penicillin/streptomycin. OCI-AML3 cells were cultured in 80-90% alpha-MEM (with or without ribo- and deoxyribonucleosides)+10-20% FBS. All cell lines were cultured at 37° C. in 5% CO2 atmosphere.
AML cell lines (10-20×10^3 cells/well) were seeded in 96-well plates and grown for 6 days in serum (10%)-containing medium in the presence or absence of inhibitors at the indicated concentrations. Proliferation was analyzed by means of a Cell Titer Glo assay using the […] (Promega, Madison, WI, USA), according to the manufacturer's instructions. Data are mean with standard deviation from two to four independent experiments in technical triplicates.
R-based Biochemically Intuitive Generalized Loewe (BIGL) model implemented with a highest single agent (HSA) null model. Specifically, the BIGL methodology was applied to calculate drug-drug interactions (Van der Borght, K., Tourny, A., Bagdziunas, R. et al. BIGL: Biochemically Intuitive Generalized Loewe null model for prediction of the expected combined effect compatible with partial agonism and antagonism. Sci Rep 7, 17935 (2017); Thas, O., Tourny, A., Verbist, B., Hawinkel, S., Nazarov, M., Mutambanengwe, K., & Bijnens, L. Statistical detection of synergy: New methods and a comparative study. Pharmaceutical Statistics (2021)).
Synergy matrix results of the BIGL analysis of the cell line data with HSA as mean model calculated on the basis of the cellular metabolic activity using Cell Titer-Glo assay. Bootstrap confidence intervals are indicated. Effect sizes and their confidence intervals are shown. […] No significant average effect if zero is included in the interval.

[1] = Compound 51 0.1 μm + Decitabine 0.15 μM
[2] = Compound 51 0.1 μm + Decitabine 1.5 μM

CC(=O)N1CCC(CN2CC[C@@H](Cc3cn(-c4ccc(F)cc4C(=O)N(C)C(C)C)c4cncc(C)c34)C2)CC1 [Compound 51]
Effect size (BIGL, HSA null model), MV4-11 Cell Proliferation (Compound 51 0.05 μm + Gilteritinib 0.3 μM): −0.02
Effect size (BIGL, HSA null model), MV4-11 Cell Proliferation (Compound 51 0.05 μm + Gilteritinib 1 μM): −0.02
Effect size (BIGL, HSA null model), MV4-11 Cell Proliferation (Compound 51 0.05 μm + Midostaurin 0.0012 μM): −0.02
Effect size (BIGL, HSA null model), MV4-11 Cell Proliferation (Compound 51 0.05 μm + Midostaurin 0.006 μM): −0.07
Effect size (BIGL, HSA null model), MV4-11 Cell Proliferation (Compound 51 0.05 μm + Midostaurin 0.025 μM): −0.14
Effect size (BIGL, HSA null model), MV4-11 Cell Proliferation (Compound 51 0.05 μm + Midostaurin 0.05 μM): −0.13
Effect size (BIGL, HSA null model), MV4-11 Cell Proliferation (Compound 51 0.05 μm + Midostaurin 0.1 μM): −0.04
Effect size (BIGL, HSA null model), MV4-11 Cell Proliferation (Compound 51 0.05 μm + Midostaurin 0.5 μM): 0.03
Effect size (BIGL, HSA null model), MV4-11 Cell Proliferation (Compound 51 0.1 μm + Decitabine 0.0015 μM): 0.01
Effect size (BIGL, HSA null model), MV4-11 Cell Proliferation (Compound 51 0.1 μm + Decitabine 0.035 μM): −0.04
Effect size (BIGL, HSA null model), MV4-11 Cell Proliferation [1]: −0.09
Synergy/antagonism call (maxR test), MV4-11 Cell Proliferation [1]: **
Effect size (BIGL, HSA null model), MV4-11 Cell Proliferation [2]: −0.11
Synergy/antagonism call (maxR test), MV4-11 Cell Proliferation [2]: **
Effect size (BIGL, HSA null model), MV4-11 Cell Proliferation (Compound 51 0.1 μm + Decitabine 3 μM): −0.06
Effect size (BIGL, HSA null model), MV4-11 Cell Proliferation (Compound 51 0.1 μm + Gilteritinib 0.0005 μM): −0.07
Effect size (BIGL, HSA null model), MV4-11 Cell Proliferation (Compound 51 0.1 μm + Gilteritinib 0.005 μM): −0.03
Effect size (BIGL, HSA null model), MV4-11 Cell Proliferation (Compound 51 0.1 μm + Gilteritinib 0.01 μM): −0.02
Effect size (BIGL, HSA null model), MV4-11 Cell Proliferation (Compound 51 0.1 μm + Gilteritinib 0.05 μM): −0.02
Effect size (BIGL, HSA null model), MV4-11 Cell Proliferation (Compound 51 0.1 μm + Gilteritinib 0.3 μM): −0.02
Effect size (BIGL, HSA null model), MV4-11 Cell Proliferation (Compound 51 0.1 μm + Gilteritinib 1 μM): −0.02
Effect size (BIGL, HSA null model), MV4-11 Cell Proliferation (Compound 51 0.1 μm + Midostaurin 0.0012 μM): −0.03
Effect size (BIGL, HSA null model), MV4-11 Cell Proliferation (Compound 51 0.1 μm + Midostaurin 0.006 μM): −0.06
Effect size (BIGL, HSA null model), MV4-11 Cell Proliferation (Compound 51 0.1 μm + Midostaurin 0.025 μM): −0.08
Effect size (BIGL, HSA null model), MV4-11 Cell Proliferation (Compound 51 0.1 μm + Midostaurin 0.05 μM): −0.09
Effect size (BIGL, HSA null model), MV4-11 Cell Proliferation (Compound 51 0.1 μm + Midostaurin 0.1 μM): −0.04
Effect size (BIGL, HSA null model), MV4-11 Cell Proliferation (Compound 51 0.1 μm + Midostaurin 0.5 μM): 0.03
Effect size (BIGL, HSA null model), MV4-11 Cell Proliferation (Compound 51 0.5 μm + Decitabine 0.0015 μM): 0
Effect size (BIGL, HSA null model), MV4-11 Cell Proliferation (Compound 51 0.5 μm + Decitabine 0.035 μM): −0.01
Effect size (BIGL, HSA null model), MV4-11 Cell Proliferation (Compound 51 0.5 μm + Decitabine 0.15 μM): −0.02
Effect size (BIGL, HSA null model), MV4-11 Cell Proliferation (Compound 51 0.5 μm + Gilteritinib 0.0005 μM): −0.02
Effect size (BIGL, HSA null model), MV4-11 Cell Proliferation (Compound 51 0.5 μm + Gilteritinib 0.005 μM): −0.03
Effect size (BIGL, HSA null model), MV4-11 Cell Proliferation (Compound 51 0.5 μm + Gilteritinib 0.01 μM): −0.02
Effect size (BIGL, HSA null model), MV4-11 Cell Proliferation (Compound 51 0.5 μm + Gilteritinib 0.05 μM): −0.02
Effect size (BIGL, HSA null model), MV4-11 Cell Proliferation (Compound 51 0.5 μm + Gilteritinib 0.3 μM): −0.02
Effect size (BIGL, HSA null model), MV4-11 Cell Proliferation (Compound 51 0.5 μm + Gilteritinib 1 μM): −0.02
Effect size (BIGL, HSA null model), MV4-11 Cell Proliferation (Compound 51 1 μm + Decitabine 0.0015 μM): 0
Effect size (BIGL, HSA null model), MV4-11 Cell Proliferation (Compound 51 1 μm + Decitabine 0.035 μM): −0.01
Effect size (BIGL, HSA null model), MV4-11 Cell Proliferation (Compound 51 1 μm + Decitabine 0.15 μM): −0.02
Effect size (BIGL, HSA null model), MV4-11 Cell Proliferation (Compound 51 1 μm + Decitabine 1.5 μM): −0.03
Effect size (BIGL, HSA null model), MV4-11 Cell Proliferation (Compound 51 1 μm + Decitabine 3 μM): −0.03
Effect size (BIGL, HSA null model), MV4-11 Cell Proliferation (Compound 51 1 μm + Gilteritinib 0.0005 μM): −0.02
Effect size (BIGL, HSA null model), MV4-11 Cell Proliferation (Compound 51 1 μm + Gilteritinib 0.005 μM): −0.02
Effect size (BIGL, HSA null model), MV4-11 Cell Proliferation (Compound 51 1 μm + Gilteritinib 0.01 μM): −0.02
Effect size (BIGL, HSA null model), MV4-11 Cell Proliferation (Compound 51 1 μm + Gilteritinib 0.05 μM): −0.02
Effect size (BIGL, HSA null model), MV4-11 Cell Proliferation (Compound 51 1 μm + Gilteritinib 0.3 μM): −0.02
Effect size (BIGL, HSA null model), MV4-11 Cell Proliferation (Compound 51 1 μm + Gilteritinib 1 μM): −0.02
Effect size (BIGL, HSA null model), MV4-11 Cell Proliferation (Compound 51 1 μm + Midostaurin 0.0012 μM): 0.02
Effect size (BIGL, HSA null model), MV4-11 Cell Proliferation (Compound 51 1 μm + Midostaurin 0.006 μM): 0.01
Effect size (BIGL, HSA null model), MV4-11 Cell Proliferation (Compound 51 1 μm + Midostaurin 0.025 μM): 0
Effect size (BIGL, HSA null model), MV4-11 Cell Proliferation (Compound 51 1 μm + Midostaurin 0.05 μM): 0
Effect size (BIGL, HSA null model), MV4-11 Cell Proliferation (Compound 51 1 μm + Midostaurin 0.1 μM): 0
Effect size (BIGL, HSA null model), MV4-11 Cell Proliferation (Compound 51 1 μm + Midostaurin 0.5 μM): 0.03
combination effect on proliferation (cytotoxicity) (in combination with decitabine, MV4-11): synergistically cytotoxic
combination effect on proliferation at low doses of gilteritinib (in combination with gilteritinib 10 nM, MV4-11): synergistic effect
combination effect on proliferation (cytotoxicity) (in combination with gilteritinib, MV4-11): not antagonistically cytotoxic
combination effect on proliferation (cytotoxicity) (in combination with midostaurin, MV4-11): not antagonistically cytotoxic

— patent US20260191835A1, “COMBINATIONS COMPRISING A MENIN-MLL INHIBITOR AND AT LEAST ONE OTHER THERAPEUTIC AGENT” (JANSSEN PHARMACEUTICA NV, priority 2022, published 2026)
